Experimental findings from ChEMBL document CHEMBL1201862, “PubChem BioAssay data set” (2004) are described below.

Active and inactive are the calls of the source. For most assays here, no stated cut-off is given here; in the data, actives have a measured IC50 and inactives only a lower limit.

For test [1], the target named is T1, Sentrin-specific protease 8 (Homo sapiens, UniProt Q96LD8).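 Further: luminescence read-out of SENP8 inhibition, dose-response confirmation following an ultra-high-throughput screen.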
T1 sequence (Q96LD8 whole entry): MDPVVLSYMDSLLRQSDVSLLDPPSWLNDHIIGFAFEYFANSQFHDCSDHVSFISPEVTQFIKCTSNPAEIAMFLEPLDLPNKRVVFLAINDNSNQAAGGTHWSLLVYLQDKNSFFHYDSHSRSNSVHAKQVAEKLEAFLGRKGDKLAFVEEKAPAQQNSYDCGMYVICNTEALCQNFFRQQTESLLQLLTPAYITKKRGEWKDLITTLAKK
Type of test: functional.

The target of test [2] is T2, Caspase-3 (Homo sapiens, UniProt P42574).
T2 sequence (P42574 whole entry): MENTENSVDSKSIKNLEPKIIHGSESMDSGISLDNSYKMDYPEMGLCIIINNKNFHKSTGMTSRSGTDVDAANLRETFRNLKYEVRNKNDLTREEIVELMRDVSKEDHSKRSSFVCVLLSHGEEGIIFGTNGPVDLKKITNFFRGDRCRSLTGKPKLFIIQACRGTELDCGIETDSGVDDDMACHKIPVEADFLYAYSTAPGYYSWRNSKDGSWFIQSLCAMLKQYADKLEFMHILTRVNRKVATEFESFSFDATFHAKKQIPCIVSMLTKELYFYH
The class given is functional.

Test [3] deals with T3, Sentrin-specific protease 7 (Homo sapiens, UniProt Q9BQF6).
T3 sequence (Q9BQF6 whole entry): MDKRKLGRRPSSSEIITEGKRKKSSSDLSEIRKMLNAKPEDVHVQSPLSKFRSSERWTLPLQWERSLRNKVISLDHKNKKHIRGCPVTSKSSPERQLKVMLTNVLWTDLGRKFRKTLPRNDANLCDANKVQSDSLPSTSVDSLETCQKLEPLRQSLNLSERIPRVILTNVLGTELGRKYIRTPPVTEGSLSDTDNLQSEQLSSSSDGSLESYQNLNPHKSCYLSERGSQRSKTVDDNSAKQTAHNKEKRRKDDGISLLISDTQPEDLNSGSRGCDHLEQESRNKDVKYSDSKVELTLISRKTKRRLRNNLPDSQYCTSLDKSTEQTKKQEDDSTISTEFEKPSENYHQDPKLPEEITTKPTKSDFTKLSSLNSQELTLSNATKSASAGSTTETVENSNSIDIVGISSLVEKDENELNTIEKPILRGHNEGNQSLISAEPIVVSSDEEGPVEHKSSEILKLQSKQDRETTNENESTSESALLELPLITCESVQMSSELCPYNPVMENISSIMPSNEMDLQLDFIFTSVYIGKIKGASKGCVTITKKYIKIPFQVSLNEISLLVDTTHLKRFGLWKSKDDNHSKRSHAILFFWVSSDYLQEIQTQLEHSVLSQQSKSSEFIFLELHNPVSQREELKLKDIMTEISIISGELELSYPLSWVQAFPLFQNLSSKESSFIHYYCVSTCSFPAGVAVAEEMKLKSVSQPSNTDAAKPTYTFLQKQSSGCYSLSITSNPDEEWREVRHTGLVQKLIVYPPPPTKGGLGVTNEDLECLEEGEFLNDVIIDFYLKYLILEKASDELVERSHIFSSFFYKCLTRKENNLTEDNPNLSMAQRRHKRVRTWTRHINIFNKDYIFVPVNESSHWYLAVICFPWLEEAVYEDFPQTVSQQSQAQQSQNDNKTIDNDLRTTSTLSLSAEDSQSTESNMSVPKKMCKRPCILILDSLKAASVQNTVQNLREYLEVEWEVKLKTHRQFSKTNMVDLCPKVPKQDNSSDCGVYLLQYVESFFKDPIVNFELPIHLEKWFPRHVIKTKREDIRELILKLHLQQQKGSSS
The class given is functional.

Test [4] addresses T4, Sentrin-specific protease 6 (Homo sapiens, UniProt Q9GZR1).
T4 sequence (Q9GZR1 whole entry): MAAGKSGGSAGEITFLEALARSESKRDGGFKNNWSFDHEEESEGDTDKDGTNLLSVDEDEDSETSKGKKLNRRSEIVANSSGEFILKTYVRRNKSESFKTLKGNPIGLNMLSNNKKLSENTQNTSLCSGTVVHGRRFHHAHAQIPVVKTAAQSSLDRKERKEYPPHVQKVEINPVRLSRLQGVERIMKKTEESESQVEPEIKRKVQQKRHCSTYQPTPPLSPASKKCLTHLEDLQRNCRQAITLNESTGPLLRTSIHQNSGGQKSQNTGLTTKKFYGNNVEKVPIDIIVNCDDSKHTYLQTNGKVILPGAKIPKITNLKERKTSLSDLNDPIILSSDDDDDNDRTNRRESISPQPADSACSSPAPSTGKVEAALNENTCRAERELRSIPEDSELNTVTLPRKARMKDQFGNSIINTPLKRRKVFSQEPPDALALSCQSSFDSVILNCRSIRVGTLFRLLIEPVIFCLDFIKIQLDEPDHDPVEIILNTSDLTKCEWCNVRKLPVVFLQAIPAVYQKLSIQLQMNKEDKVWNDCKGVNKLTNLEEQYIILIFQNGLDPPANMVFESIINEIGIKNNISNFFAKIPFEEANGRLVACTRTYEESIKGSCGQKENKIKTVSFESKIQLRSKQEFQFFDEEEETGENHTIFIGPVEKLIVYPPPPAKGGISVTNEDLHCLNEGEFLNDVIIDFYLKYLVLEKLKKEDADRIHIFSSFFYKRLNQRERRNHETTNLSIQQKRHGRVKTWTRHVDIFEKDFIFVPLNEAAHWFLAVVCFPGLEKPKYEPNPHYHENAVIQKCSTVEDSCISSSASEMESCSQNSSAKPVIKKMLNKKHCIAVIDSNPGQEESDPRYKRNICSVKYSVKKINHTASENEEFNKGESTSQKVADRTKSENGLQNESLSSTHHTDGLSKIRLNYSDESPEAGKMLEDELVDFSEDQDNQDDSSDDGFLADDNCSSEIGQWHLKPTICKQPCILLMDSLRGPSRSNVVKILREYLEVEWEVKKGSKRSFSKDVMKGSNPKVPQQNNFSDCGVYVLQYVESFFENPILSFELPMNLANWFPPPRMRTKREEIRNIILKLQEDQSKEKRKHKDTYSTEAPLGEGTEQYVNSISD
Type of test: functional.

The target in test [5] is T2, Caspase-3. In words: SAR Analysis of small molecule inhibitors of Sentrin-specific proteases (SENPs) using a Caspase-3 Selectivity assay. [Related pubchem assays (depositor defined):AID2540, AID2599, AID434973, AID489001]. The class given is functional.
The target in test [6] is Serine/threonine-protein phosphatase (Homo sapiens, UniProt Q9BPW0). Description: PP5 phosphatase inhibitors, dose response, biochemical, fluorescence (AID 2395).
The target in test [7] is T4, Sentrin-specific protease 6. In words: SAR Analysis of small molecule inhibitors of Sentrin-specific protease 6 (SENP6) using a Luminescent assay. [Related pubchem assays (depositor defined):AID2582, AID2599]. The class given is functional.

Serine/threonine-protein phosphatase, sequence (Q9BPW0 whole entry): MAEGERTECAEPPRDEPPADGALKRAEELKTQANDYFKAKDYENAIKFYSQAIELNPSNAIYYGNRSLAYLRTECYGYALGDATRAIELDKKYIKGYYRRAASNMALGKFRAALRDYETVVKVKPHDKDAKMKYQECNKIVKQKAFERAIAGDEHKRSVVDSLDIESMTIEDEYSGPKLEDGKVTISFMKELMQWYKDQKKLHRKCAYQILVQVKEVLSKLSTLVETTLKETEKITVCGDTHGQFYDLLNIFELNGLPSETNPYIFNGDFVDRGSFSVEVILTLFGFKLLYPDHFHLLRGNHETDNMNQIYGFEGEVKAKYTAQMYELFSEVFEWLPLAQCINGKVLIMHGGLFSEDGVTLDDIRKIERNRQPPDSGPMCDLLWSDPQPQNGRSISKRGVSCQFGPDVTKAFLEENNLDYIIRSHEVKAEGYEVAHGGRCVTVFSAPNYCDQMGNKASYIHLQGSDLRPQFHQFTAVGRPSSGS

`CCOC(=O)C1=C(COC(=O)c2ccc([N+](=O)[O-])s2)NC(=O)NC1C` (stereo unspecified): the 50% inhibitory concentration (IC50) (usually the point on the concentration scale where inhibition reaches its midpoint) in test [1] was 3.57 µM (active); on Caspase-3 [2], 8.13 µM (active); in test [3], 6.1 µM (active); in test [4], 4.48 µM (active).
For the compound `Oc1cccc(/C=N/Nc2cc(N3CCCC3)nc(N3CCCC3)n2)c1`, the IC50 in test [1] is 17.2 µM (active); on Caspase-3 [5], > 99 µM (inactive); on Caspase-3 [2] it was > 100 µM (inactive); in test [6], 5.83 µM (active); in test [3], 9.99 µM (active); in test [4] it was 6.69 µM (active). The IC50 in test [7] was 20.4 µM (active).
